Results from patent US20250127898A1, “PHOTODYNAMIC THERAPY AND DIAGNOSIS” (RMW CHO Group Limited, priority 2021, published 2025).
Counter-ions that a name gives are not always drawn. Like-named read-outs stand apart in the source and are kept apart here.

Assays:
[1] = tested on: Human ovarian cancer cell line SKOV3; experiment: Phototoxicity in SKOV3 cells after 660 nm laser or LED activation (AlamarBlue viability); format: cell-based; conditions: for increase in phototoxicity of meso-compound compared to non-meso analogue: vs phyllochlorin free acid / phyllochlorin sodium salt
Protocol: Samples were stored at 4° C. protected from light. […] All data are shown as mean±SD (where appropriate). […] Laser and LED exposure induce an equivalent response in relation to phototoxicity. Following activation, cells were cultured for a further 24 hours. Media was then replaced with fresh media containing AlamarBlue, and % viable cells remaining assessed as above. Controls included cells treated with reduced chlorin analogues but not activated by laser light; cells without reduced chlorin analogue treatment but with laser light; and untreated controls. All measurements were made in quadruplicate.

[2] = tested on: Human ovarian cancer cell line SKOV3; experiment: Inherent cytotoxicity (dark toxicity) in SKOV3 cells (AlamarBlue viability); format: cell-based
Protocol: Photosensitizers (e.g. chlorin analogue, chlorin e4 disodium (provided by Advanced Molecular Technologies, Scoresby) or Talaporfin sodium (purchased from Focus Bioscience cat #HY-16477-5MG)) were resuspended in 100% dimethylsulfoxide (DMSO) at a concentration of 5.5 mM. Samples were stored at 4° C. protected from light.
All data are shown as mean±SD (where appropriate).
Untreated cells were used as a control. […] All measurements were made in quadruplicate.

[3] = tested on: indomethacin-induced gastric lesions; conditions: rats; background statement; cited from earlier work
[4] = tested on: TAA- or CCl4-induced acute liver injuries; conditions: mice; background statement; cited from earlier work
[5] = Estimated pKa of the carboxylic acid; format: physicochemical; conditions: estimate, no measurement described
Text: As PBS buffer (pH 7.4) is used in the experiments and the carboxylic acid in reduced phyllochlorin (and the same carboxy group in other related chlorins) is estimated to have a pKa of less than 5, reduced phyllochlorin in the PBS buffer will exist predominantly as the sodium and potassium salts with very little to no free acid.

C57BL/6 mice = experiment: Acute toxicity after intraperitoneal injection into mice; format: in vivo; conditions: 5 mg/kg intraperitoneal, observed for 30 mins, prepared with 1% PVP in PBS+20 mM HEPES
Protocol: To assess acute toxicity, reduced phyllochlorin or chlorin e4 disodium (each prepared with 1% PVP in PBS+20 mM HEPES) were administered at a dose of 5 mg/kg to C57BL/6 mice by intraperitoneal injection.

[6] = Homo sapiens, SK-OV-3, light or radiation study, SKOV3 cells, 24 hours uptake, 660 nm laser, 50 mW/cm^2 for 5 mins (15 J/cm^2), viability 24 hours after activation, read-out: Phototoxicity μM (IC90)
[7] = SKOV3 cells, 24 hours uptake, 660 nm laser, 50 mW/cm^2 for 5 mins (15 J/cm^2), viability 24 hours after activation, read-out: Phototoxicity μM (IC90)
[8] = SKOV3 cells, 24 hours incubation, no light activation
[9] = Homo sapiens, SK-OV-3, light or radiation study, SKOV3 cells, 24 hours uptake, 660 nm LED panel, 50 mW/cm^2 for 5 mins (15 J/cm^2), values marked *, read-out: Phototoxicity μM (IC90), measured by LED

In the case of `CCC1=C(C)c2cc3[nH]c(cc4nc(c(C)c5cc(C)c(cc1n2)[nH]5)[C@@H](CCC(=O)N(C)CCOCCOCC[n+]1ccccc1)[C@@H]4C)c(C)c3CC` [Compound 13, Reduced Phyllochlorin N-(2-(2-(2-pyridiniumethoxy)ethoxy)ethyl)-N-methyl-3-amide chloride], the IC90 ([1]; Homo sapiens, SK-OV-3, light or radiation study, SKOV3 cancer cells, laser or LED, read-out: phototoxicity IC90) is reported as no more than 0.01 µM, the IC90 [1, 6] is reported as 0.006 µM and the “Dark toxicity μM (IC10)” value ([2]; human, 24 h) is reported as 1.260 µM.

In the case of `C=Cc1c(C)c2cc3nc(c(C)c4[nH]c(cc5nc(cc1[nH]2)C(C)=C5CC)c(C)c4C(=O)O)[C@@H](CCC(=O)O)[C@@H]3C` [chlorin e4, Chlorin e4], the “effect against indomethacin-induced gastric lesions” value [3] is listed as “protective effect” and the “effect against TAA- or CCl4-induced acute liver injuries” value [4] is listed as “protective effect”.

With `CCC1=C(C)c2cc3[nH]c(cc4nc(c(C)c5cc(C)c(cc1n2)[nH]5)[C@@H](CCC(=O)N[C@H]1C(O)O[C@H](CO)[C@H](O)[C@@H]1O)[C@@H]4C)c(C)c3CC` (stereo partly drawn) [Compound 24, Reduced Phyllochlorin 2-deoxy-D-galactosamine-propylamide] the IC90 [1, 6] was 0.049 µM and the “Dark toxicity μM (IC10)” value ([2]; human, 24 h) was 7.011 µM.

In the case of `CCC1=C(C)c2cc3[nH]c(cc4nc(c(C)c5cc(C)c(cc1n2)[nH]5)[C@@H](CCC(=O)N(C)CCCO)[C@@H]4C)c(C)c3CC` [Compound 22, Reduced Phyllochlorin N-3-hydroxypropyl-N-methyl Propylamide], the IC90 [1, 6] is reported as 0.042 µM and the “Dark toxicity μM (IC10)” value ([2]; human, 24 h) is reported as 4.348 µM.

In the case of “Phyllochlorin sodium salt [reference compound]”, the IC90 [1, 7] is reported as 0.35 µM and the “Dark toxicity μM (IC10)” value [2, 8] is reported as 21.96 µM.

In the case of `CCC1=C(C)c2cc3[nH]c(cc4nc(c(C)c5cc(C)c(cc1n2)[nH]5)[C@@H](CCC(=O)N(C)CCCS[C@@H]1O[C@H](CO)[C@@H](O)[C@H](O)[C@H]1O)[C@@H]4C)c(C)c3CC` [Compound 4, Reduced Phyllochlorin β-D-1-thioglucose-N-methylpropylamide], the IC90 [1, 6] is reported as 0.068 µM and the “Dark toxicity μM (IC10)” value ([2]; human, 24 h) is reported as 2.780 µM.

In the case of `CCC1=C(C)c2cc3[nH]c(cc4nc(c(C)c5cc(C)c(cc1n2)[nH]5)[C@@H](CCC(=O)N[C@@H](CCCCN)C(=O)N(C)C)[C@@H]4C)c(C)c3CC` [Compound 31, Reduced Phyllochlorin N-Lysyl Dimethylamide Propylamide Hydrochloride], the IC90 [1, 9] is reported as 0.011 µM and the “Dark toxicity μM (IC10)” value ([2]; human, 24 h) is reported as 8.850 µM.

For `CCC1=C(C)c2cc3[nH]c(cc4nc(c(C)c5cc(C)c(cc1n2)[nH]5)[C@@H](CCC(=O)N(C)CCO)[C@@H]4C)c(C)c3CC` [Compound 19, Reduced Phyllochlorin N-2-hydroxyethyl-N-methyl propylamide], the IC90 [1, 6] was 0.061 µM and the “Dark toxicity μM (IC10)” value ([2]; human, 24 h) was 15.940 µM.

In the case of `CCC1=C(C)c2cc3[nH]c(cc4nc(c5c6[nH]c(cc1n2)c(C)c6C(=O)OC5)[C@@H](CCC(=O)N(C)CCCS[C@@H]1O[C@H](CO)[C@@H](O)[C@H](O)[C@H]1O)[C@@H]4C)c(C)c3CC` [Compound 40, Reduced Chlorin K β-D-1-thioglucose-N-methylpropylamide], the IC90 [1, 9] is reported as 0.229 µM and the “Dark toxicity μM (IC10)” value ([2]; human, 24 h) is reported as 3.222 µM.

For `CCC1=C(C)c2cc3[nH]c(cc4nc(c(C)c5cc(C)c(cc1n2)[nH]5)[C@@H](CCC(=O)N(C)CCC[S+]([O-])[C@@H]1O[C@H](CO)[C@@H](O)[C@H](O)[C@H]1O)[C@@H]4C)c(C)c3CC` (stereo partly drawn) [Compound 17, Reduced Phyllochlorin β-D-1-thioglucose-N-methylpropylamide sulfoxide], the IC90 [1, 6] was 0.174 µM and the “Dark toxicity μM (IC10)” value ([2]; human, 24 h) was 4.752 µM.

In the case of `CCC1=C(C)c2cc3[nH]c(cc4nc(c(C)c5cc(C)c(cc1n2)[nH]5)[C@@H](CCC(=O)N(C)CCOCCOCCO)[C@@H]4C)c(C)c3CC` [Compound 12, Reduced Phyllochlorin N-(2-(2-(2-hydroxyethoxy)ethoxy)ethyl)-N-methyl-3-amide], the IC90 [1, 6] is reported as 0.078 µM and the “Dark toxicity μM (IC10)” value ([2]; human, 24 h) is reported as 5.975 µM.

For `CCC1=C(C)c2cc3[nH]c(cc4nc(c(C)c5cc(C)c(cc1n2)[nH]5)[C@@H](CCC(=O)N(C)CCOCCOCC[P+](c1ccccc1)(c1ccccc1)c1ccccc1)[C@@H]4C)c(C)c3CC` [Compound 16, Reduced Phyllochlorin N-(2-(2-(2-triphenylphosphoniumethoxy)ethoxy)ethyl)-N-methyl-3-amide chloride], the IC90 [1, 6] was 0.011 µM and the “Dark toxicity μM (IC10)” value ([2]; human, 24 h) was 3.205 µM.

In the case of `C=Cc1c(C)c2cc3nc(c(C)c4[nH]c(cc5nc(cc1[nH]2)C(C)=C5CC)c(C)c4C(=O)O)[C@@H](CCC(=O)O)[C@@H]3C` [Chlorin e4 disodium, chlorin e4 disodium, reference compound], the IC90 [1, 7] is reported as 21.3 µM and the “Dark toxicity μM (IC10)” value [2, 8] is reported as 40.23 µM.

With `CCC1=C(C)c2cc3[nH]c(cc4nc(c(C)c5cc(C)c(cc1n2)[nH]5)[C@@H](CCCO)[C@@H]4C)c(C)c3CC` [Compound 20, Reduced Phyllochlorin 3-hydroxypropyl] the IC90 [1, 6] was 0.063 µM and the “Dark toxicity μM (IC10)” value ([2]; human, 24 h) was 5.825 µM.

With “Reduced Phyllochlorin N-(2-(2-hydroxyethoxy)ethyl)-N-methylpropylamide [Compound 7]” the IC90 [1, 7] was 0.036 µM and the “Dark toxicity μM (IC10)” value [2] was 26.100 µM.

For `CCC1=C(C)c2cc3[nH]c(cc4nc(c(C)c5cc(C)c(cc1n2)[nH]5)[C@@H](CCC(=O)N[C@@H]1C(O)O[C@H](CO)[C@@H](O)[C@@H]1O)[C@@H]4C)c(C)c3CC` (stereo partly drawn) [Compound 15, Reduced Phyllochlorin 2-deoxy-D-mannosamine-propylamide], the IC90 [1, 6] was 0.07 µM and the “Dark toxicity μM (IC10)” value ([2]; human, 24 h) was 5.400 µM.

For `CCC1=C(C)c2cc3[nH]c(cc4nc(c(C)c5cc(C)c(cc1n2)[nH]5)[C@@H](CCC(=O)N(C)CCCCCO)[C@@H]4C)c(C)c3CC` [Compound 23, Reduced Phyllochlorin N-5-hydroxypentyl-N-methyl Propylamide], the IC90 [1, 6] was 0.064 µM and the “Dark toxicity μM (IC10)” value ([2]; human, 24 h) was 4.540 µM.

In the case of `CCC1=C(C)c2cc3[nH]c(cc4nc(c(C)c5[nH]c(cc1n2)c(C)c5C(=O)O)[C@@H](CCC(=O)O)[C@@H]4C)c(C)c3CC` [Compound 36, Reduced Chlorin e4], the IC90 [1, 6] is reported as 4.36 µM and the “Dark toxicity μM (IC10)” value ([2]; human, 24 h) is reported as 12.200 µM.

For Reduced Phyllochlorin [Compound 1], the “pKa of the carboxylic acid (estimated)” value [5] was “less than 5”, the IC90 [1, 7] was 0.176 µM and the “increase in phototoxicity of meso-compound compared to non-meso analogue” value ([1]; SKOV3 cells) was 2.4 fold. The “clinical signs of acute toxicity (squinting, piloerection, loss of motility, general behaviour)” value (C57BL/6 mice) was “safe for injection”, the “Dark toxicity compared to non-meso analogue” value [2] was “largely unaffected” and the “Dark toxicity μM (IC10)” value [2] was 10.450 µM.

For `CCC1=C(C)c2cc3[nH]c(cc4nc(c(C)c5cc(C)c(cc1n2)[nH]5)[C@@H](CCC(=O)N[C@H]1C(O)O[C@H](CO)[C@@H](O)[C@@H]1O)[C@@H]4C)c(C)c3CC` (stereo partly drawn) [Compound 3, Reduced Phyllochlorin 2-deoxyglucosamine-propylamide], the IC90 [1, 6] was 0.043 µM and the “Dark toxicity μM (IC10)” value ([2]; human, 24 h) was 13.330 µM.

In the case of `CCC1=C(C)c2cc3[nH]c(cc4nc(c(C)c5cc(C)c(cc1n2)[nH]5)[C@@H](CCC(=O)N(C)CCOCCO[C@@H]1O[C@H](CO)[C@@H](O)[C@H](O)[C@H]1O)[C@@H]4C)c(C)c3CC` [Compound 5, Reduced Phyllochlorin β-D-1-glucose-N-methyl-2-ethoxy-N-ethanamine], the IC90 [1, 6] is reported as 0.102 µM and the “Dark toxicity μM (IC10)” value ([2]; human, 24 h) is reported as 18.440 µM.

For `CCC1=C(C)c2cc3[nH]c(cc4nc(c(C)c5cc(C)c(cc1n2)[nH]5)[C@@H](CCC(=O)[O-])[C@@H]4C)c(C)c3CC.[Na+]` [Compound 2, Reduced Phyllochlorin Sodium Salt], the IC90 [1, 6] was 0.071 µM, the “increase in phototoxicity of meso-compound compared to non-meso analogue” value ([1]; SKOV3 cells) was 4.9 fold and the “Dark toxicity μM (IC10)” value [2, 8] was 47.840 µM. For the same compound, the “Dark toxicity compared to non-meso analogue” value ([2]; SKOV3 cells, vs phyllochlorin free acid / phyllochlorin sodium salt) was “largely unaffected”.
